For 10 compounds, IC50, inhibition and induction of apoptosis results are on record in article PMC9005971, “Discovery of 2-(4-Acrylamidophenyl)-Quinoline-4-Carboxylic Acid Derivatives as Potent SIRT3 Inhibitors” (Frontiers in Chemistry, 2022).

One may read the IC50 as the concentration needed to halve the response being measured.

For one assay, the system named is MV4-11 cells. In words: In vitro antiproliferative CCK-8 assay, MV4-11. As to conditions: Homo sapiens, 72 h, read-out: IC50 growth inhibition MV4-11. In kind it is cell-based. As for the experimental part: (§1) The proliferation of THP-1, MOLM-13, SEM and MV4-11 cells was tested by CCK-8 assay. Briefly, cells were seeded in 96-well plate with about 5 × 10^3 cells in each well. The cells were treated with P6 or Ara-C (0–10 µM) after 24 h of incubation. CCK-8 reagent ([…]) was added to each well after 72 h of incubation, and cells were incubated at 37°C for 4 h. The light absorbance at 450 nm was measured by using an Opsys microplate reader (Dynex Technologirs, Chantilly, VA, United States). Results are illustrated as percent of cell viability normalized to DMSO-treated control cells.
Background: Tetrazolium dyes change colour on reduction, which living cells bring about.

The next assay relates to THP-1 cells. In words: In vitro antiproliferative CCK-8 assay, THP-1. It is filed as cell-based. As to conditions: Homo sapiens; for inhibition at 1 µM: dose of 1 μM, mean of three experiments, read-out: THP-1 percentage inhibitory rate. As for the experimental part: as §1
Assay [1] relates to THP-1, MOLM-13, SEM and MV4-11 cells. Nature of the assay: Cell apoptosis analysis, MLLr leukemic cells. It is filed as cell-based. The settings on record: 72 h, flow cytometry. As for the experimental part:
THP-1, MOLM-13, SEM and MV4-11 cells were treated with P6 (0.45–4 µM) or Ara-C (0.1–2.0 µM) for 72 h, collected and resuspended in 1× binding buffer. Cells were incubated with FITC Annexin V and PI double labeling for 30 min in the dark at room temperature and measured by flow cytometry.
Background: In flow cytometry, cells or beads pass a laser one at a time.

For another assay, the system named is MOLM-13 cells. Nature of the assay: In vitro antiproliferative CCK-8 assay, MOLM-13. In kind it is cell-based. The settings on record: Homo sapiens, 72 h, read-out: IC50 growth inhibition MOLM-13. As for the experimental part:
as §1

A further assay concerns SEM cells. Nature of the assay: In vitro antiproliferative CCK-8 assay, SEM. In kind it is cell-based. The settings on record: 72 h, read-out: IC50 growth inhibition SEM. As to the method: as §1
The target of another assay is T1, SIRT1 (Homo sapiens, UniProt Q96EB6).
T1 sequence (Q96EB6 1-747): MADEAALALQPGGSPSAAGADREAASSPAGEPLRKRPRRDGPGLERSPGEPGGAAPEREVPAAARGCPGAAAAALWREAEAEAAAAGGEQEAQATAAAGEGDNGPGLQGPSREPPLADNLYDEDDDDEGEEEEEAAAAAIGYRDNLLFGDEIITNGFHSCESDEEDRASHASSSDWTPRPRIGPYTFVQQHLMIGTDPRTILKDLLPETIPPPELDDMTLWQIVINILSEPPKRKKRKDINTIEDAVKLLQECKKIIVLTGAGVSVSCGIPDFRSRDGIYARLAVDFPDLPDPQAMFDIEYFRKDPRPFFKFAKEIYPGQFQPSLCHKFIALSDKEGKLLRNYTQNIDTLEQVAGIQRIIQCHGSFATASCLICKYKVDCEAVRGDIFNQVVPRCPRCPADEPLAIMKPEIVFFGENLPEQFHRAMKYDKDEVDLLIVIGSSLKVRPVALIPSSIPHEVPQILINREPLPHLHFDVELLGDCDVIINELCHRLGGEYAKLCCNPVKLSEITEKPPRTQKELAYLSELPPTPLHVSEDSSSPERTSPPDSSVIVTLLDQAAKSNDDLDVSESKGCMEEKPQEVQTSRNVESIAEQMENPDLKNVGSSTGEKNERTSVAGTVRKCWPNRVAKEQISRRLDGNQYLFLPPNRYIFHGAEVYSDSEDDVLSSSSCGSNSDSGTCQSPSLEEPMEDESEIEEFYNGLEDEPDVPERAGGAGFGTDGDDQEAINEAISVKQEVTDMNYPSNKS
The settings on record: ref Galli et al., 2012; cited from earlier work.

A further assay addresses T2, SIRT2 (Homo sapiens, UniProt Q8IXJ6).
T2 sequence (Q8IXJ6 1-389): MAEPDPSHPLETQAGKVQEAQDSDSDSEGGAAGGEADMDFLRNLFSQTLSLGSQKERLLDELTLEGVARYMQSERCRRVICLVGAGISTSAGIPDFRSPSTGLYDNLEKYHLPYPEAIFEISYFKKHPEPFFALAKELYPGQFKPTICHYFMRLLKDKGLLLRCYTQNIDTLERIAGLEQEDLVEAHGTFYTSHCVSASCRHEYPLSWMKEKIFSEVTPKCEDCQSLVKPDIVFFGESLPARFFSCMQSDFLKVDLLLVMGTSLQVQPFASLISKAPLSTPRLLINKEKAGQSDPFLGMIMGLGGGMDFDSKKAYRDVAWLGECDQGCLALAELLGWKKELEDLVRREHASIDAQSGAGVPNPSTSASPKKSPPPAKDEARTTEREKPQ
As to conditions: ref Galli et al., 2012; cited from earlier work.

The target of the next assay is T3, SIRT3 (Homo sapiens, UniProt Q9NTG7).
T3 sequence (Q9NTG7 1-399): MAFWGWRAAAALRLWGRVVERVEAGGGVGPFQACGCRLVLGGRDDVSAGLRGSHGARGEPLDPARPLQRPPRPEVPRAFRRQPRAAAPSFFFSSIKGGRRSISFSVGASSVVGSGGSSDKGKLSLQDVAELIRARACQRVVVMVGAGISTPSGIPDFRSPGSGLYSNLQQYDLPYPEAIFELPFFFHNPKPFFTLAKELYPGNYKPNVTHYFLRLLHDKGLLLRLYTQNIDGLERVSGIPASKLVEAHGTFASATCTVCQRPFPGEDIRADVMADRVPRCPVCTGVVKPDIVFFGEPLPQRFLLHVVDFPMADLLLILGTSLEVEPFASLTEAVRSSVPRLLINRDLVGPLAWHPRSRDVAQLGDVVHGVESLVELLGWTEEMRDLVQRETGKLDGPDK
Nature of the assay: SIRT3 enzyme inhibitory assay (fluorescence). As to conditions: dose of 10 μM; mean of three experiments; read-out: SIRT3 percentage inhibitory rate. It is filed as biochemical. As for the experimental part:
All of the enzymatic reactions were conducted at 37°C for 30 min. […] The compounds were diluted in 10% DMSO and 5 ul of the dilution was added to each reaction mixture (50 ul). The assay was performed by quantitating the amount of fluorescent product generated from the enzyme reaction. Fluorescence intensity is then analyzed at excitation wavelength of 350–360 nm and emission wavelength of 450–460 nm on a SpectraMax M5 microtiter plate reader. The IC50 values were calculated using Prism GraphPad software.

As to `Nc1ccn([C@@H]2O[C@H](CO)[C@@H](O)[C@@H]2O)c(=O)n1` [Ara-C, Cytarabine, reference compound], the IC50 is 540 nM in the assay on MV4-11 cells; 520 nM with THP-1 cells (72 h, CCK-8, read-out: IC50 growth inhibition THP-1); 60 nM in the assay on MOLM-13 cells; 60 nM with SEM cells. The inhibition at 1 µM in the assay with THP-1 cells amounted to 80.4 ± 3.22%. Moreover, the induction of apoptosis result in assay [1] is given as “obvious apoptosis”.
For `c1cncc(-c2c[nH]nn2)c1` [Compound 3-TYP], the IC50 was 88 nM on SIRT1 and 92 nM on SIRT2.
As for `C=CC(=O)Nc1ccc(-c2cc(C(=O)Nc3ccc(CC)cc3)c3ccccc3n2)cc1` [Compound P13, 2-(4-Acryloylamino-phenyl)-quinoline-4-carboxylic acid (4-ethyl-phenyl)-amide], the inhibition at 1 µM in the assay with THP-1 cells worked out at 59.9 ± 3.27%. Further, the inhibition at 10 µM at SIRT3 was determined as 40.2 ± 2.91%.
As for `C=CC(=O)Nc1ccc(-c2cc(C(=O)Nc3ccc(F)cc3)c3ccccc3n2)cc1` [Compound P14, 2-(4-Acryloylamino-phenyl)-quinoline-4-carboxylic acid (4-fluoro-phenyl)-amide], in the assay with THP-1 cells, the inhibition at 1 µM amounted to 53.2 ± 4.26%. Moreover, the inhibition at 10 µM on SIRT3 came out at 26.4 ± 1.78%.
On to `C=CC(=O)Nc1ccc(-c2cc(C(=O)Nc3cc(OC)cc(OC)c3)c3ccccc3n2)cc1` [Compound P15, 2-(4-Acryloylamino-phenyl)-quinoline-4-carboxylic acid (3,5-dimethoxy-phenyl)-amide], for which, in the assay on THP-1 cells, the inhibition at 1 µM turned out to be 49.6 ± 2.52%. In addition, the inhibition at 10 µM on SIRT3 amounted to 42.8 ± 1.26%.
As to `C=CC(=O)Nc1ccc(-c2cc(C(=O)Nc3ccc(OC)cc3)c3ccccc3n2)cc1` [Compound P16, 2-(4-Acryloylamino-phenyl)-quinoline-4-carboxylic acid (4-methoxy-phenyl)-amide], the inhibition at 1 µM with THP-1 cells turned out to be 13.3 ± 1.23%. For the same compound, the inhibition at 10 µM at SIRT3 came to 28.4 ± 1.85%.
For `C=CC(=O)Nc1ccc(-c2cc(C(=O)Nc3ccc(OCC)cc3)c3ccccc3n2)cc1` [Compound P17, 2-(4-Acryloylamino-phenyl)-quinoline-4-carboxylic acid (4-ethoxy-phenyl)-amide] the same measures were 13.8 ± 1.01% and 29.6 ± 1.43%.
In the case of `C=CC(=O)Nc1ccc(-c2cc(C(=O)Nc3ccc(CCCCC)cc3)c3ccccc3n2)cc1` [Compound P18, 2-(4-Acryloylamino-phenyl)-quinoline-4-carboxylic acid (4-pentyl-phenyl)-amide], in the assay with THP-1 cells, the inhibition at 1 µM came to 30 ± 1.39%. In addition, the inhibition at 10 µM on SIRT3 amounted to 30.6 ± 2.89%.
Turning to `C=CC(=O)Nc1ccc(-c2cc(C(=O)Nc3ccc4c(c3)OCO4)c3ccccc3n2)cc1` [Compound P20, 2-(4-Acryloylamino-phenyl)-quinoline-4-carboxylic acid benzo [1,3]dioxol-5-ylamide], the inhibition at 1 µM with THP-1 cells is 28.1 ± 1.76%. For the same compound, the inhibition at 10 µM on SIRT3 stood at 45.1 ± 2.55%.
Regarding `C=CC(=O)Nc1ccc(-c2cc(C(=O)Nc3cccc(OC)c3)c3ccccc3n2)cc1` [Compound P21, 2-(4-Acryloylamino-phenyl)-quinoline-4-carboxylic acid (3-methoxy-phenyl)-amide], the inhibition at 1 µM in the assay with THP-1 cells was found to be 35.4 ± 1.58%. Moreover, the inhibition at 10 µM at SIRT3 is 22.2 ± 1.72%.
